BindingDB's records for patent US20230293517 (Adorx Therapeutics, 2023)

Columns and labels:
Experiment in all cases: Adenosine Receptor Time-Resolved Fluorescence Resonance Energy Transfer (TRFRET) Binding Assay
Adenosine receptor A1 = molecular target: T1, Adenosine receptor A1 (Homo sapiens, UniProt P30542)
T1 sequence (P30542 whole entry): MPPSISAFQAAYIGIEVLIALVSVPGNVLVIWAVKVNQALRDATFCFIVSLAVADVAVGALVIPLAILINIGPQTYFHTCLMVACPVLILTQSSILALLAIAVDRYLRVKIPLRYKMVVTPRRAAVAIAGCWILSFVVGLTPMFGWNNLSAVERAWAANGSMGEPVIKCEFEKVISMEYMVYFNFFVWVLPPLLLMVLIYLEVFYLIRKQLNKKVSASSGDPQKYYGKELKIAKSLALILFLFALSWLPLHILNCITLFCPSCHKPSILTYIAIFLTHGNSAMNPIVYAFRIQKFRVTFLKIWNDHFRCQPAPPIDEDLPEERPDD
Method: (§1) All FRET binding experiments were conducted at room temperature in white 384-well plates, in assay binding buffer containing 1×LabMed (Cisbio, France), 100 μg/mL saponin, 1% DMSO and 0.02% pluronic acid. Binding of the fluorescently labelled Adenosine receptor antagonist XAC (CA200645, FRET acceptor) to terbium-labelled A1, A2a, A2b and A3 adenosine receptors (FRET donors) was detected by time-resolved FRET due to the close proximity of the donor and acceptor in a binding event. To investigate the ability of unlabelled test compounds to bind to Adenosine A1, A2a, A2b and A3 receptors, dose response curves were constructed that determined the ability of a range of concentrations to inhibit the binding of 30 nM CA200645 to the A2b receptor and 100 nM CA200645 to the A1, A2a, and A3 receptor. Serial dilution (1:3 dilutions) of test compounds in neat DMSO and transfer of a 400 nL sample of test compound into the assay plate was carried out using the Mosquito (TTP Labtech, UK). The compound samples were incubated for 2 hours at room temperature with a fixed concentration of CA200645 defined for each receptor (see above) and CHO cell membranes containing the human Adenosine A1 (0.5 μg/well), A2a (0.3 μg/well), A2b (1 μg/well) or A3 (1 μg/well) receptor in 40 μL of assay buffer. Total and non-specific binding of CA200645 was determined in the absence and presence of 10 μM XAC, respectively. Following 2 hours incubation, the level of CA200645 binding was detected on a Pherastar FSX (BMG Labtech, Germany) using standard TR-FRET settings. […] FRET ratios were obtained by multiplying the acceptor/donor ratio value by 10,000. Specific binding was determined by subtracting the non-specific binding FRET ratio from the total binding FRET ratio.

Adenosine receptor A2a = Adenosine receptor A2a (Homo sapiens, UniProt P29274)
Adenosine receptor A2a, sequence (P29274 whole entry): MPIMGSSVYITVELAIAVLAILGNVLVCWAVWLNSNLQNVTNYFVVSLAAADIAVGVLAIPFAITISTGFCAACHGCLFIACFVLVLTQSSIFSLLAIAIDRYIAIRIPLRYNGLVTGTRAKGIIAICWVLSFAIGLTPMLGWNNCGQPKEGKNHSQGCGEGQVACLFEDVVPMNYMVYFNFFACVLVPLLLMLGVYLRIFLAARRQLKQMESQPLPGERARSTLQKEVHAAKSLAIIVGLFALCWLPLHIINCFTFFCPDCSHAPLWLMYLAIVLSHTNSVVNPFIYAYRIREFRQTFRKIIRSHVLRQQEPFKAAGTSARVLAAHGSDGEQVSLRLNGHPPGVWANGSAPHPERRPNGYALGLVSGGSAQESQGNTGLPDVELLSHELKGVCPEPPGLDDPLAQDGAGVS
Method: as §1

Adenosine receptor A2b = molecular target: T2, Adenosine receptor A2b (Homo sapiens, UniProt P29275)
T2 sequence (P29275 whole entry): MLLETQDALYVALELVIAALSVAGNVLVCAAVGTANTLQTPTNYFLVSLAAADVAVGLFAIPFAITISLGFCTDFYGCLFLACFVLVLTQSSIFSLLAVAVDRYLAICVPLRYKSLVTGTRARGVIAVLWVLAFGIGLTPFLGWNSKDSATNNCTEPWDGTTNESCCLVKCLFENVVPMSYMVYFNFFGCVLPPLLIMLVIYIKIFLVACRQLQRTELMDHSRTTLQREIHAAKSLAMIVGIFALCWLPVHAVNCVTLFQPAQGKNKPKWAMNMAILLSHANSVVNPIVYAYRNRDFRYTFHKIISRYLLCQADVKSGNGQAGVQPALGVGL
Method: as §1

Adenosine receptor A3 = molecular target: T3, Adenosine receptor A3 (Homo sapiens, UniProt P0DMS8)
T3 sequence (P0DMS8 whole entry): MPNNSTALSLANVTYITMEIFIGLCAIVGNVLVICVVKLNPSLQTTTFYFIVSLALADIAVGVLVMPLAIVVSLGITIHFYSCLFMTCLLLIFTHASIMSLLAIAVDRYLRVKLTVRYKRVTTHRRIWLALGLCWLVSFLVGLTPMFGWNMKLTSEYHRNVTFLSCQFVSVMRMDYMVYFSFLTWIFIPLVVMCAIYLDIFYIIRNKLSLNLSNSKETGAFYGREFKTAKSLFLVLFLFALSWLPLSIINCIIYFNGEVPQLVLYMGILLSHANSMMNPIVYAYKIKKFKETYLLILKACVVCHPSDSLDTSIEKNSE
Method: as §1

Row | SMILES | Ki (Adenosine receptor A1) [nM] | Ki (Adenosine receptor A2a) [nM] | Ki (Adenosine receptor A2b) [nM] | Ki (Adenosine receptor A3) [nM]
1 | Cc1cc(-c2sc(NC(=O)N3CCC4(CC3)CNC(=O)N4C)nc2-c2cccc(C#N)c2)cc(C)n1 [US20230293517, Example 6.51] | 120 |  | 1.2 | 318
2 | Cc1cc(-c2sc(NC(=O)N3CCC4(CC3)CNC4=O)nc2-c2cccc(C#N)c2)c(F)c(C)n1 [US20230293517, Example 6.69] | 124 | 0.94 | 1.4 | 156
3 | Cc1cc(-c2sc(NC(=O)N3CCC4(CCCC(=O)N4)CC3)nc2-c2cccc(C#N)c2)cc(C)n1 [US20230293517, Example 6.58] | 559 | 2.27 | 7.8 | 848
4 | Cc1cc(-c2sc(NC(=O)N3CC4(COC4)C3)nc2-c2cccc(C#N)c2C)cc(C)n1 [US20230293517, Example 6.79] | 177 | 1.5 | 6 | 537
5 | Cc1cc(-c2sc(NC(=O)N3CC4(CNC(=O)C4)C3)nc2-c2cccc(C#N)c2)cc(C)n1 [US20230293517, Example 6.55] | 86 | 0.6 | 2.4 | 273
6 | Cc1cc(-c2sc(NC(=O)N3CC[C@H]3CO)nc2-c2cccc(C#N)c2)cc(C)n1 [US20230293517, Example 6.73] | 92 | 2.51 | 3.7 | 165
7 | Cc1cc(-c2sc(NC(=O)N3CCC[C@H]3CO)nc2-c2cccc(C#N)c2)cc(C)n1 [US20230293517, Example 6.71] | 110 | 3.45 | 4.2 | 62

The next molecules have a lower Ki (Adenosine receptor A1) than those just listed; values first:

Row | Ki (Adenosine receptor A1) [nM] | Ki (Adenosine receptor A2a) [nM] | Ki (Adenosine receptor A2b) [nM] | Ki (Adenosine receptor A3) [nM] | SMILES
8 | 75 | 0.59 | 1.2 | 368 | Cc1cc(-c2sc(NC(=O)N3CCC4(CC3)CNC(=O)O4)nc2-c2cccc(C#N)c2)cc(C)n1 [US20230293517, Example 6.56]
9 | 30 | 0.36 | 0.6 | 217 | Cc1cc(-c2sc(NC(=O)N3CC(C)(C#N)C3)nc2-c2cccc(C#N)c2)c(F)c(C)n1 [US20230293517, Example 6.68]
10 | 22 | 2.06 | 1 | 201 | Cc1cc(-c2sc(NC(=O)N3CC(C)(O)C3)nc2-c2cccc(C#N)c2)c(F)c(C)n1 [US20230293517, Example 6.67]
11 | 3 | 1.12 | 1.2 | 94 | Cc1cc(-c2sc(NC(=O)N3CC[C@@H]3C)nc2-c2cccc(C#N)c2)cc(C)n1 [US20230293517, Example 6.72]
12 | 32 | 0.88 | 1.3 | 212 | Cc1cc(-c2sc(NC(=O)N3CC4(CNC(=O)N4)C3)nc2-c2cccc(C#N)c2)cc(C)n1 [US20230293517, Example 6.57]
13 | 39 | 12.9 | 21.7 | 321 | Cc1cc(-c2sc(NC(=O)N3CCOC[C@@H]3CO)nc2-c2cccc(C#N)c2)cc(C)n1 [US20230293517, Example 6.76]
14 | 53 | 0.38 | 1.9 | 268 | Cc1cc(-c2sc(NC(=O)N3CC4(CCOCC4)C3)nc2-c2cccc(C#N)c2)cc(C)n1 [US20230293517, Example 6.54]
15 | 20 | 1.66 | 5.3 | 162 | Cc1cc(-c2sc(NC(=O)N3CC[C@@H]3CO)nc2-c2cccc(C#N)c2)cc(C)n1 [US20230293517, Example 6.91]
16 | 37 | 0.43 | 0.6 | 1210 | Cc1cc(-c2sc(NC(=O)N3CCC(C)(C#N)CC3)nc2-c2cccc(C#N)c2)c(F)c(C)n1 [US20230293517, Example 6.66]
17 | 67 | 2 | 2.4 | 200 | Cc1cc(-c2sc(NC(=O)N3CCOC(C(N)=O)C3)nc2-c2cccc(C#N)c2)cc(C)n1 (configuration not stated) [US20230293517, Example 4.14]
